# Data published in US20100010041A1, “DIFLUORINATED PIPERIDINES FOR TREATMENT OF ALZHEIMER'S DISEASE AND RELATED CONDITIONS” (priority 2006, published 2010).
# Target: T1, γ-secretase (Homo sapiens, UniProt P49768)
# T1 construct: Human SH-SY5Y neuroblastoma cells overexpressing the direct γ-secretase substrate SPA4CT; endogenous in cells; host or cells: human SH-SY5Y neuroblastoma cells (stably overexpressing the substrate SPA4CT, induced with sodium butyrate)
# Test: Cell-Based γ-Secretase Assay (Aβ(40)/Aβ(42) in media of SH-SY5Y cells overexpressing SPA4CT)
# Conditions: Human SH-SY5Y neuroblastoma cells overexpressing SPA4CT; values given as ranges; read-out: IC50 values for Aβ(1-42) inhibition
# Procedure: Cell-Based γ-Secretase Assay
# Human SH-SY5Y neuroblastoma cells overexpressing the direct γ-secretase substrate SPA4CT were induced with sodium butyrate (10 mM) for 4 hours prior to plating. Cells were plated at 35,000 cells/well/100 μl in 96-well plates in phenol red-free MEM/10% FBS, 50 mM HEPES, 1% Glutamine and incubated for 2 hrs at 37° C., 5% CO2.
# Compounds for testing were diluted into Me2SO to give a ten point dose-response curve. Typically 10 μl of these diluted compounds in Me2SO were further diluted into 182 μl dilution buffer (phenol red-free MEM/10% FBS, 50 mM HEPES, 1% Glutamine) and 10 μl of each dilution was added to the cells in 96-well plates (yielding a final Me2SO concentration of 0.5%). Appropriate vehicle and inhibitor controls were used to determine the window of the assay.
# After incubation overnight at 37° C., 5% CO2, 10 μl and 50 μl media were transferred into a fresh Costar round-bottom 96-well plate for detection of Aβ(40) and Aβ(42) peptides, respectively. 40 μl Origen buffer (PBS, 2% BSA, 0.2% Tween-20) was added to the Aβ(40) wells followed by the addition of 25 μl the respective antibody premixes to the wells: • Aβ(40) premix: 1 μg/ml ruthenylated G2-10 antibody, 4 μg/ml biotinylated 4G8 antibody diluted in Origen buffer • Aβ(42) premix: 0.5 μg/ml ruthenylated G2-11 antibody, 4 μg/ml biotinylated 4G8 antibody diluted in Origen buffer
# (Biotinylated 4G8 Antibody Supplied by Signet Pathology Ltd; G2-10 and G2-11 Antibodies Supplied by Chemicon)
# After overnight incubation of the assay plates on a shaker at 4° C., the Origen M8 Analyser (Igen Inc.) was calibrated according to the manufacturer's instructions. 25 μl of streptavidin magnetic bead (Dynal) premix (400 μg/ml streptavidin beads/ml in Origen buffer) was added to the assay plates and incubated on a shaker for 15 minutes. 150 μl Origen buffer was added to each well and the plates were read on the Origen M8 Analyser according to the manufacturer's instructions.
# Cell viability was measured in the corresponding cells after removal of the media for the Aβ assays by a colorimetric cell proliferation assay (CellTiter 96™ AQ assay, Promega) utilizing the bioreduction of MTS (Owen's reagent) to formazan according to the manufacturer's instructions. Briefly, 5 μl of 10×MTS/PES was added to the remaining 50 μl of media before returning to the incubator. The optical density was read at 495 nm after ˜4 hours.
# LD50 and IC50 values for inhibition of Aβ(40) and Aβ(42) were calculated by nonlinear regression fit analysis using the appropriate software (eg. Excel fit). The total signal and the background were defined by the corresponding Me2SO and inhibitor controls.
row,IC50 [nM],Structure (SMILES)
1,2000 to 3000,"CC(C)(C)C[C@@H](CCc1ccc(C(F)(F)F)cc1)N1CCC(F)(F)[C@H](CC(=O)O)[C@H]1c1ccc(C(F)(F)F)cc1 (relative stereo) [Example 14, {1-(3,3-dimethyl-1-{2-[4-(trifluoromethyl)phenyl]ethyl}butyl)-4,4-difluoro-2-[4-(trifluoromethyl)phenyl]piperidin-3-yl}acetic acid]"
2,< 500,"CC(C)(C)C#C[C@H](CCC(F)(F)F)N1CCC(F)(F)[C@H](CC(=O)O)[C@H]1c1ccc(C(F)(F)F)cc1 (single isomer, unassigned) [Example 19, {1-[4,4-dimethyl-1-(3,3,3-trifluoropropyl)pent-2-yn-1-yl]-4,4-difluoro-2-[4-(trifluoromethyl)phenyl]piperidin-3-yl}acetic acid]"
3,2000 to 3000,"CC(C)(C)C#CCN1[C@H](c2ccc(C(F)(F)F)cc2)[C@@H](CC(=O)O)C(F)(F)C[C@H]1c1ccc(C(F)(F)F)cc1 (relative stereo) [Example 23, {1-(4,4-dimethylpent-2-yn-1-yl)-4,4-difluoro-2,6-bis[4-(trifluoro-methyl)phenyl]piperidin-3-yl}acetic acid]"
4,1000 to 1500,"CC(C)(C)CC[C@H](CCC(F)(F)F)N1CCC(F)(F)[C@H](CC(=O)O)[C@H]1c1ccc(C(F)(F)F)cc1 (single isomer, unassigned) [Example 22, {1-[4,4-dimethyl-1-(3,3,3-trifluoropropyl)pentyl]-4,4-difluoro-2-[4-(trifluoromethyl)phenyl]piperidin-3-yl}acetic acid]"
5,1000 to 1500,"CC(C)(C)C#C[C@H](CCCC(C)(C)C)N1CCC(F)(F)[C@H](CC(=O)O)[C@H]1c1ccc(C(F)(F)F)cc1 (relative stereo) [Example 17, {1-[1-(3,3-dimethylbut-1-yn-1-yl)-5,5-dimethylhexyl]-4,4-difluoro-2-[4-(trifluoromethyl)phenyl]piperidin-3-yl}acetic acid]"
6,< 500,"CC(C)(C)CC[C@H](CCC(F)(F)F)N1CCC(F)(F)[C@H](CC(=O)O)[C@H]1c1ccc(C(F)(F)F)cc1 (single isomer, unassigned) [Example 18, {1-[4,4-dimethyl-1-(3,3,3-trifluoropropyl)pentyl]-4,4-difluoro-2-[4-(trifluoromethyl)phenyl]piperidin-3-yl}acetic acid]"
7,1000 to 1500,"CC(C)(C)/C=C\[C@H](CCC(F)(F)F)N1CCC(F)(F)[C@H](CC(=O)O)[C@H]1c1ccc(C(F)(F)F)cc1 [Example 6, {1-[(2Z)-4,4-dimethyl-1-(3,3,3-trifluoropropyl)pent-2-en-1-yl]-4,4-difluoro-2-[4-(trifluoromethyl)phenyl]piperidin-3-yl}acetic acid]"
8,1500 to 2000,"C=C(C)C#C[C@H](CCC(=C)C)N1CCC(F)(F)[C@H](CC(=O)O)[C@H]1c1ccc(C(F)(F)F)cc1 (relative stereo) [Example 7, {4,4-difluoro-1-[4-methyl-1-(3-methylbut-3-en-1-yl)pent-4-en-2-yn-1-yl]-2-[4-(trifluoromethyl)phenyl]piperidin-3-yl}acetic acid]"
9,2000 to 3000,"CC(C)CC[C@H](c1ccc(C(F)(F)F)cc1)N1CCC(F)(F)[C@H](CC(=O)O)[C@H]1c1ccc(C(F)(F)F)cc1 (relative stereo) [Example 8, {4,4-difluoro-1-(4-methyl-1-[4-(trifluoromethyl)phenyl]pentyl}-2-[4-(trifluoromethyl)phenyl]piperidin-3-yl}acetic acid]"
10,1500 to 2000,"CC(C)(C)CCC(CCC(C)(C)C)N1CCC(F)(F)[C@H](CC(=O)O)[C@H]1c1ccc(C(F)(F)F)cc1 (relative stereo) [Example 15, {1-[1-(3,3-dimethylbutyl)-4,4-dimethylpentyl]-4,4-difluoro-2-[4-(trifluoromethyl)phenyl]piperidin-3-yl}acetic acid]"
11,2000 to 3000,"CC(C)(C)/C=C\[C@H](CC(C)(C)C)N1CCC(F)(F)[C@H](CC(=O)O)[C@H]1c1ccc(C(F)(F)F)cc1 (relative stereo) [Example 12, {1-[(2Z)-1-(2,2-dimethylpropyl)-4,4-dimethylpent-2-en-1-yl]-4,4-difluoro-2-[4-(trifluoromethyl)phenyl]piperidin-3-yl}acetic acid]"
12,1000 to 1500,"CC(C)(C)CC[C@H](c1ccc(C(F)(F)F)cc1)N1CCC(F)(F)[C@H](CC(=O)O)[C@H]1c1ccc(C(F)(F)F)cc1 (relative stereo) [Example 1, {1-{4,4-dimethyl-1-[4-(trifluoromethyl)phenyl]pentyl}-4,4-difluoro-2-[4-(trifluoromethyl)phenyl]piperidin-3-yl}acetic acid]"
13,< 500,"CC(C)(C)/C=C\[C@H](CCC(F)(F)F)N1CCC(F)(F)[C@H](CC(=O)O)[C@H]1c1ccc(C(F)(F)F)cc1 (relative stereo) [Example 20, {1-[(2Z)-4,4-dimethyl-1-(3,3,3-trifluoropropyl)pent-2-en-1-yl]-4,4-difluoro-2-[4-(trifluoromethyl)phenyl]piperidin-3-yl}acetic acid]"
14,1500 to 2000,"C=C(C)C#C[C@H](CCC(F)(F)F)N1CCC(F)(F)[C@H](CC(=O)O)[C@H]1c1ccc(C(F)(F)F)cc1 (relative stereo) [Example 2, {4,4-difluoro-1-[4-methyl-1-(3,3,3-trifluoropropyl)pent-4-en-2-yn-1-yl]-2-[4-(trifluoromethyl)phenyl]piperidin-3-yl}acetic acid]"
15,1500 to 2000,"CC(C)(C)CC[C@H](CC(C)(C)C)N1CCC(F)(F)[C@H](CC(=O)O)[C@H]1c1ccc(C(F)(F)F)cc1 (relative stereo) [Example 11, {1-[1-(2,2-dimethylpropyl)-4,4-dimethylpentyl]-4,4-difluoro-2-[4-(trifluoromethyl)phenyl]-piperidin-3-yl}acetic acid]"
16,1000 to 1500,"CC(C)(C)CCCN1[C@H](c2ccc(C(F)(F)F)cc2)[C@@H](CC(=O)O)C(F)(F)C[C@H]1c1ccc(C(F)(F)F)cc1 (relative stereo) [Example 24, {1-(4,4-dimethylpentyl)-4,4-difluoro-2,6-bis[4-(trifluoromethyl)phenyl]piperidin-3-yl}acetic acid]"
